Assay results from patent US8912355B2, “Linoleic phospholipids and uses thereof for inhibiting inflammatory and neurodegenerative processes” (University of Ottawa Heart Institute, priority 2009, dated 2014).
Entries after “also recorded” stand apart in the source; their conditions may differ.

What was measured:
NF-κB [1] = assay: LPS- or TNFα-induced NF-κB phosphorylation in HepG2 cells, Western blot; type: cell-based, human; details: for TNFα-induced activation of NF-κB (p-NF-κB): DLPC 12 μmol/L, DOPC 12 μmol/L or LA 25 μmol/L for 30 min, TNFα 10 ng/ml, 5 min
Method: HepG2 cells were pre-incubated with DLPC (12 μM) for 30 min. and then incubated with LPS (5 μg/ml) for 24 h in DMEM serum-depleted media. Phospho-IκBα and phospho-NF-kB (p-IκBα and p-NF-κB) expression were analyzed by Western blot.
(§1) Western Blot Analysis—After incubation with drugs for the indicated times and doses, cells were washed twice with ice-cold PBS-T on ice. Cells were lysed by adding buffer [NaF 1 mmol/L, NaCl 5 mmol/L, EDTA 1 mmol/L, NP40 1 mmol/L (Roche Diagnostics, Indianapolis, Ind.), HEPES 10 mmol/L, pepstatin A 1 mg/mL, leupeptin 1 mg/mL, aprotinin 1 mg/mL, Na3VO4 1 mmol/L, and PMSF 1 mmol/L] and total protein was extracted. An equal amount of cell proteins were separated by 12% SDS-PAGE and were analyzed by Western blot using specific antibodies to TNFα, Aβ, APP, phospho-ERK1/2, ERK1/2, phospho-tau, tau, phospho-IκBα, IκBα, phospho-NF-κB and NF-κB. […] Band intensity was analyzed with the Alpha-Innotech Fluor Chem™ HD Imager.

IκBα [2] = assay: TNFα-induced IκBα phosphorylation and degradation in SH-SY5Y cells, Western blot; type: cell-based, human; details: TNFα 10 ng/ml
Method: as §1

ERK1/2 = assay: TNFα- or H2O2-induced ERK1/2 (MAPK) phosphorylation in SH-SY5Y cells, Western blot; type: cell-based, human; details: for TNFα-induced ERK1/2 phosphorylation: TNFα 10 ng/ml
Method: (§2) Cells and Cell Culture—Human neuroblastoma (SH-SY5Y) cells were obtained from American Type Cell Culture (ATCC Number CRL-2266; Manassas, Va., USA). SH-SY5Y was cultured and maintained in F12:DMEM (1:1, v/v) media condition with 10% FBS and 1% penicillin/streptomycin in a 37° C./5% CO2 exchange condition. Passages 3-10 were used in the present study and confluent cells were subjected to stimulation with drugs for indicated times under serum-starved conditions.
(§3) Preparation of Phospholipid Vesicles—Phospholipid Vesicles in Phosphate-Buffered saline (PBS; 1 mg/mL) were prepared by sonication as previously described (8). Briefly, pure dilinoeoylphosphatidylcholine (DLPC) in chloroform was dried down under N2 and 1 mL of PBS was added by vortexing. The mix was then sonicated (Branson sonicator set at 100% duty cycle and 10% power) for 1 min. The sonicated preparation was incubated for 30 min at 37° C. in a water bath, and samples were resonicated for 5 min at 95% duty cycle and 10% power and filtered before use.
(§4) Western Blot Analysis—After incubation with drugs for the indicated times and doses, cells were washed twice with ice-cold PBS-T on ice. Cells were lysed by adding buffer [NaF 1 mmol/L, NaCl 5 mmol/L, EDTA 1 mmol/L, NP40 1 mmol/L (Roche Diagnostics, Indianapolis, Ind.), HEPES 10 mmol/L, pepstatin A 1 mg/mL, leupeptin 1 mg/mL, aprotinin 1 mg/mL, Na3VO4 1 mmol/L, and PMSF 1 mmol/L] and total protein was extracted. An equal amount of cell proteins were separated by 12% SDS-PAGE and were analyzed by Western blot using specific antibodies to TNFα, Aβ, APP, phospho-ERK1/2, ERK1/2, phospho-tau, tau, phospho-IκBα, IκBα, phospho-NF-κB and NF-κB. Blots for the similar experiments were also subjected to β-actin for a loading control. Band intensity was analyzed with the Alpha-Innotech Fluor Chem™ HD Imager.
Experiments were undertaken to determine if DLPC can block a tumor necrosis factor (TNFα) activation of MAPK in neuroblastoma cells. […]

tau = assay: Agonist-induced tau phosphorylation (AT8) in SH-SY5Y cells, Western blot; type: cell-based, human
Method: as §2, §3, §4
The effect of pro-inflammatory and oxidative stress agonists on tau phosphorylation were also evaluated in SH-SY5Y cells.

NF-κB [3] = assay: TNFα-induced NF-κB phosphorylation in SH-SY5Y cells, Western blot; type: cell-based, human
Method: as §2, §3, §4
The effect of a selective MAPK inhibitor, U0126, on a TNFα induction of MAPK and nuclear factor kappa B (NF-κB) was evaluated. […] TNFα induced a 3-fold increase in NF-κB phosphorylation in SH-SY5Y cells at 5 min after treatment (FIG. 4). DLPC blocked the increase in neuronal NF-κB phosphorylation by ˜50% over 5-30 min post treatment with TNFα.

IκBα [4] = assay: LPS-induced IκBα phosphorylation in HepG2 cells, Western blot; type: cell-based, human; details: DLPC 12 μM 30 min, LPS 5 μg/ml, 24 h
Method: HepG2 cells were pre-incubated with DLPC (12 μM) for 30 min. and then incubated with LPS (5 μg/ml) for 24 h in DMEM serum-depleted media. Phospho-IκBα and phospho-NF-kB (p-IκBα and p-NF-κB) expression were analyzed by Western blot. Histograms represent densitometry analysis of p-IκBα (A) and p-NF-κB (B) and values are shown relative to β-actin and are expressed as mean±SEM of 3 replicate experiments. *P<0.05 vs LPS alone.
as §4

TNFα = assay: LPS-induced TNFα expression in HepG2 cells, Western blot; type: cell-based, human; details: DLPC 12 μmol/L 30 min, LPS 5 μg/ml, 24 h
Method: (§5) HepG2 cells were pre-incubated with DLPC (12 μmol/L) for 30 min and then incubated with LPS (5 μg/ml) for 24 h in DMEM serum-depleted media. Cell lysates were analyzed for TNFα expression by Western blot. Values are presented relative to β-actin and are expressed as mean±SEM for 3 replicate experiments. *P<0.05 vs LPS alone.
as §4

amyloid-β = assay: Amyloid-β secretion into conditioned media of SH-SY5Y cells, Western blot; type: cell-based, human
Method: SH-SY5Y cells were pretreated with DLPC (12 μM) for 30 minutes and then incubated with LPS (100 ng/mL) for 24 h. Conditioned media from each experiment were collected and subjected to Western blot analysis for amyloid-β. Loading volumes were adjusted relative to total cell protein. Histograms representing densitometry analysis of amyloid-(3 and are expressed as mean±SEM of at least 3 independent experiments. *P<0.001 vs control and **P<0.001 vs LPS alone.
as §2, with “conditions. […]” for “conditions.”
Aβ quantification—Aβ immuno-quantification was performed in conditioned media after incubation with the inhibitors/agonists and/or phospholipids for the indicated times and doses. […] Band intensities were analyzed using the Spot-densitometer application of the AlphaEaseFC software and values were corrected with total cell proteins in cell lysates. […] Total protein concentration was determined using the BCA protein assay (Pierce, Rockford, Ill.) in cell lysate. […]

TLR-4 = assay: LPS-induced TLR-4 expression in HepG2 cells, Western blot; type: cell-based, human; details: DLPC 12 μmol/L 30 min, LPS 5 μg/ml, 24 h
Method: as §5, with “min.” for “min”, “TLR-4” for “TNFα”
as §4

NF-κB [5] = assay: LPS and TNFα induction of NF-κB in CaCO-2 cells (unpublished observations); type: cell-based; details: CaCO-2 cell line; unpublished observations of the inventors
Kupffer cells = Kupffer cells of ethanol-fed rats; cited from earlier work
[6] = tested on: amyloid precursor protein (APP); assay: Basal amyloid precursor protein expression in SH-SY5Y cells, Western blot; type: cell-based, human; details: unstimulated SH-SY5Y; DLPC 12 μM, 24 h
Method: SH-SY5Y cells were incubated with DLPC (12 μM) for 24 h and APP expression was analyzed in total cell lysates by Western blotting. Histograms representing densitometry analysis of APP and the values are presented relative to total β-actin control and are expressed as mean±SEM of at least 3 independent experiments. *P<0.05 vs control.
as §2
Preparation of Phospholipid Vesicles—Phospholipid Vesicles in Phosphate-Buffered saline (PBS; 1 mg/mL) were prepared by sonication as previously described (8). […]
Western Blot Analysis—After incubation with drugs for the indicated times and doses, cells were washed twice with ice-cold PBS-T on ice. […] An equal amount of cell proteins were separated by 12% SDS-PAGE and were analyzed by Western blot using specific antibodies to TNFα, Aβ, APP, phospho-ERK1/2, ERK1/2, phospho-tau, tau, phospho-IκBα, IκBα, phospho-NF-κB and NF-κB. […] Band intensity was analyzed with the Alpha-Innotech Fluor Chem™ HD Imager.

[7] = DLPC 12 μM 30 min, TNFα 10 ng/ml
[8] = inhibitor 10 μM pretreatment 30 min
[9] = 10 μM pretreatment 30 min, TNFα 10 ng/ml

Q: For `CCCCC/C=C\C/C=C\CCCCCCCC(=O)OC[C@H](COP(=O)([O-])OCC[N+](C)(C)C)OC(=O)CCCCCCC/C=C\C/C=C\CCCCC` [DLPC, dilinoleoylphosphatidylcholine], which “LPS-induced NF-κB phosphorylation / activation” value (NF-κB [1]; DLPC 12 μM 30 min, LPS 5 μg/ml, 24 h) is on record?
A: inhibits LPS-induced IkBα and NF-κB phosphorylation after 24 h; also recorded: inhibits activation of NF-κB in HepG2 cells for up to 24 h

Q: What about the “TNFα-induced activation of NF-κB (p-NF-κB)” value (NF-κB [1]) of the same compound?
A: block activation of NF-κB

Q: What about the IκBα degradation (IκBα [2]; DLPC 12 μM 30 min) of the same compound?
A: prevented IkBα degradation

Q: What about the “TNFα-induced IκBα phosphorylation” value (IκBα [2]; DLPC 12 μM 30 min) of the same compound?
A: blocked TNFα-induced IkBα phosphorylation

Q: What about the “hydrogen peroxide induction of MAPK” value (ERK1/2; DLPC) of the same compound?
A: block a hydrogen peroxide induction of MAPK

Q: What about the “TNFα-induced ERK1/2 phosphorylation” value (ERK1/2; DLPC 12 μM pre-incubated 30 min) of the same compound?
A: block ERK1/2 phosphorylation for 30 min

Q: What about the LPS-induced tau phosphorylation (tau; DLPC 12 μM 30 min, LPS 100 ng/ml) of the same compound?
A: blocked the effect both agonists and gave rise to tau phosphoylation levels lower than control values by 30 min

Q: What about the TNFα-induced tau phosphorylation (tau; [7]) of the same compound?
A: blocked the effect both agonists and gave rise to tau phosphoylation levels lower than control values by 30 min

Q: And the “TNFα-induced NF-κB phosphorylation” value (NF-κB [3]; [7])?
A: inhibited TNFα-induced NF-κB phosphorylation

Q: And the “block of the TNFα-induced increase in neuronal NF-κB phosphorylation” value (NF-κB [3]; DLPC 12 μM, 5-30 min post treatment with TNFα)?
A: ~50%

Q: What about the “LPS-induced IκBα phosphorylation” value (IκBα [4]) of the same compound?
A: inhibits LPS-induced IkBα and NF-κB phosphorylation after 24 h

Q: And the “LPS-induced increase in TNFα expression” value (TNFα)?
A: inhibits an LPS-induced increase in TNFα expression

Q: What about the “LPS-induced increase in Aβ secretion” value (amyloid-β; DLPC 12 μM 30 min, LPS 100 ng/mL, 24 h) of the same compound?
A: completely blocked

Q: And the “decrease of basal secretion of Aβ” value (amyloid-β; DLPC 12 μM, 24 h conditioned media)?
A: 65%

Q: What about the “LPS-induced increase in TLR-4 expression” value (TLR-4) of the same compound?
A: blocks an LPS-induced increase in TLR-4 expression

Q: And the “LPS and TNFα induction of NF-κB” value (NF-κB [5])?
A: can block an LPS and TNFα induction of NF-κB

Q: And the NF-κB activation (Kupffer cells)?
A: decreases induction of TNFα secretion and NF-κB activation

Q: And the “induction of TNFα secretion” value (Kupffer cells)?
A: decreases induction of TNFα secretion

Q: What about the “decrease of basal expression of amyloid precursor protein (APP)” value [6] of the same compound?
A: ~25%

Q: Which “TNFα-induced activation of NF-κB (p-NF-κB)” value (NF-κB [1]) does the source give for `CCCCCCCC/C=C\CCCCCCCC(=O)OC[C@H](COP(=O)([O-])OCC[N+](C)(C)C)OC(=O)CCCCCCC/C=C\CCCCCCCC` [DOPC, dioleoyl phosphatidylcholine, reference compound] here?
A: no impact

Q: What does the source list for `CS/C(N)=C(C#N)/C(C#N)=C(\N)SC` [U0124, reference compound]?
A: TNFα-induced ERK1/2 phosphorylation (ERK1/2; [8]): no effect; NF-κB phosphorylation status (NF-κB [3]; [9]): no effect

Q: With `N#CC(=C(/N)Sc1ccccc1N)/C(C#N)=C(\N)Sc1ccccc1N` [U0126, reference compound] as the compound, how does the “reduction of TNFα-induced IκBα phosphorylation” value (IκBα [2]; 10 μM pretreatment 30 min) read?
A: ~50%

Q: And the “TNFα-induced ERK1/2 phosphorylation” value (ERK1/2; [8])?
A: blocked the phosphorylation of ERK1/2

Q: And the “TNFα-induced phosphorylation of tau (AT8)” value (tau; U0126 10 μM pretreatment 30 min, TNFα 10 ng/ml, 5 min)?
A: completely blocked

Q: What about the “reduction of TNFα-induced NF-κB phosphorylation” value (NF-κB [3]; [9]) of the same compound?
A: ~50%
